Results published in patent US11786503B2, “Pharmaceutical compositions and methods for countering chemotherapy induced cardiotoxicity” (Auransa Inc., priority 2016, dated 2023).
Where two headings read alike, the source gives them in different places.

What was measured:
cardiomyocytes [1] = assay: bortezomib-induced cardiotoxicity (Example 14); format: cell-based, human; conditions: 100 μM myricetin
[2] = test system: Human iPSC-derived cardiomyocytes; assay: DOX-induced DNA double strand break, γH2AX immunostaining; format: cell-based; conditions: 48 hours
[3] = test system: Human stem cell derived cardiomyocytes; assay: sunitinib-induced cell death (Example 14); format: cell-based; conditions: sunitinib (10 μM) plus MYR (1 to 100 μM), 72 hours
TOPOIIα expression = assay: TOPOIIα mRNA expression in cardiomyocytes; format: cell-based
[4] = test system: human induced pluripotent stem cell-derived cardiomyocytes (iPSC-CM)
[5] = test system: Human iPSC-derived cardiomyocytes; assay: doxorubicin-induced mitochondrial toxicity, TMRM signal, 2 days (Example 2); format: cell-based; conditions: co-treated with 1.25 μM doxorubicin and 79 μM myricetin, compared to 1.25 μM doxorubicin alone
Protocol: Following treatment, the samples were incubated with a tetramethylrhodamine methyl ester (TMRM) dye to indicate mitochondrial health, and Hoechst 33342 to identify cell nuclei. Cells were imaged using the INCell Analyzer2200.

[6] = test system: sorafenib treated cardiomyocytes; assay: sorafenib-induced contractile dysfunction (Example 14); format: cell-based, human; conditions: 5 μM sorafenib treated cardiomyocytes
[7] = test system: Cardiomyocytes (human iPSC-derived); assay: doxorubicin-induced apoptosis, CellEvent dye, 3 days (Example 4); format: cell-based; conditions: Cardiomyocyte, 72 h, co-treated with 1 μM of doxorubicin, read-out: IC50 for protective effects against apoptosis
Protocol: Cardiomyocytes were prepared as described above. […] Following treatment, the samples were incubated with a CellEvent dye to indicate apoptosis-positive cells, and a second dye to identify cell nuclei.

C57BL/16 mice = assay: acute anthracycline-induced cardiotoxicity model, echocardiography (Example 16); format: in vivo
Description: An acute anthracycline-induced cardiotoxicity model was established in 9-10 week old C57BL/16 mice obtained from The Jackson Laboratory. […] General health of the animals was monitored on a daily basis throughout the course of the study. […] Left ventricular (LV) M-mode images were obtained in the two-dimensional short axis view close to the papillary muscles. Tracings of endocardial tissue during systole and diastole were made off line.

[8] = test system: Human iPSC-derived cardiomyocytes; assay: DOX-induced contractility dysfunction, Pulse video, 48 hours (Example 7); format: cell-based
[9] = test system: Human iPSC-derived cardiomyocytes; assay: contractility, beat rate by Pulse video, 3 days (Example 3); format: cell-based; conditions: 72 hours; for beat rate: mock-treated 33.33
[10] = test system: Doxorubicin treated human iPSC-derived cardiomyocytes; assay: iPSC-CM protection by myricetin analogs (Table 1); format: cell-based; conditions: for EC50 / Emax: Homo sapiens; for Emax: read-out: iPSC-CM protection Max Effect (%)
[11] = test system: Human iPSC-derived cardiomyocytes; assay: cells; format: cell-based; conditions: Cardiomyocyte, 0.5 μM of Doxorubicin, 72 hours, read-out: EC50 for rescue from DOX-induced cell death
Protocol: To measure the rescue rates from the DOX-induced cell death in cardiomyocytes, the protective effect of myricetin was directly compared with that of dexraxozane (DEX; standard of care). Human iPSC-derived cardiomyocytes were treated with 0.5 μM of Doxorubicin and increasing concentrations of myricetin (MYR, circle) or dexraxozane (DEX, square). […] Cells were imaged using INCell Analyzer2200 (GE). […] (n=3).
Next, the ability of MYR to confer cardioprotection was directly compared with that of DHM as these two compounds display distinctive property in their structures and TOPOI inhibition activity. […] Human iPSC-derived cardiomyocytes were treated with 0.5 μM of Doxorubicin and increasing concentrations of myricetin (MYR, circle) or dihydromyricetin (DHM, triangle).

[12] = test system: Human iPSC-derived cardiomyocytes; assay: DOX-induced sarcomere disruption, Cardiac Troponin T immunostaining (Example 8); format: cell-based; conditions: DOX (0.5 μM) plus MYR (100 μM), 72 hours
Protocol: DOX-induced cell death is often manifested by severity of structural disruptions of cardiomyocyte organization (e.g., sarcomere). To assess the protective effect of MYR against DOX-induced sarcomere disruption, human iPSC-derived cardiomyocytes were treated with DMSO, DOX (0.5 μM), or DOX plus MYR (100 μM). After 72 hours of treatment, cells were immunostained with antibody against Cardiac Troponin T (Abcam) to show sarcomeric organization in of the heart cells.

TOPOIIβ mRNA expression = TOPOIIβ mRNA expression in cardiomyocytes; format: cell-based; conditions: for TOPOIIβ mRNA expression: compound alone, DOX at 24 and 48 hours
A549 cells = assay: doxorubicin-mediated death of lung cancer cells, CellTiter-Glo (Example 22); format: cell-based; conditions: co-treated with increasing concentrations of doxorubicin, 72 hours
Protocol: A549 cells (lung cancer) were cultured for 1 day before performing experiments. […] XLFit was used for curve fitting.

TOPOIIβ = target: T1, TOPOIIβ (Homo sapiens, UniProt Q02880); assay: kDNA decatenation assay, TOPOIIβ; format: biochemical;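 note: kinetoplast DNA incubated with one unit of TOPOIIβ at 37 °C for 30 min, decatenated product resolved on 1% agarose gel, inhibition scored from relative band intensity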
T1 construct: purchased Inspiralis

cardiomyocytes [13] = assay: cytotoxicity of myricetin analogs to cardiomyocytes (Table 1, Toxicity)
TOPOIIα = target: T2, TOPOIIα (Homo sapiens, UniProt P11388); assay: kDNA decatenation assay, TOPOIIα; format: biochemical;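 note: kDNA incubated with one unit of TOPOIIα at 37 °C for 30 min, decatenated product resolved on 1% agarose gel, inhibition from relative band intensity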
T2 construct: purchased Inspiralis

[14] = test system: cardiomyocytes differentiated from induced pluripotent stem cells; assay: long term toxicity on electrophysiology, active electrodes (Example 24); format: cell-based
Protocol: Samples were either mock-treated with 0.1% DMSO, or treated with various concentrations of the indicated drug. Following treatment, the percentage of active electrodes in each sample was measured for at least 5 days. Percentage of active electrodes was quantified and graphed in a time course.

[15] = test system: cardiomyocytes differentiated from induced pluripotent stem cells; assay: doxorubicin-induced mitochondrial toxicity, TMRM-negative cells, 48 hours (Example 17); format: cell-based, human; conditions: 1 μM doxorubicin, KAE 17 μM, AMB 0.76 μM, MES 10 μM, NAC 50 μM, Dex 160 μM, VIT 115 μM
Protocol: Following treatment, the samples were incubated with a tetramethylrhodamine methyl ester (TMRM) dye to indicate mitochondrial health, and a second dye to identify cell nuclei.

MDA-MB-231 cells [16] = conditions: co-treated with increasing concentrations of doxorubicin, 72 hours
topoisomerase IIβ = topoisomerase IIβ (Homo sapiens, UniProt Q02880); conditions: 100 μM, 24 hours, iPSC-CMs
[17] = test system: cardiomyocytes differentiated from induced pluripotent stem cells; assay: acute toxicity on electrophysiology, MEA beat period and field potential duration (Example 23); format: cell-based; conditions: lower drug concentration, at least 20 minutes
Protocol: Samples were either mock-treated with 0.1% DMSO, or treated with increasing concentrations of the indicated drug for at least 20 minutes. Cardiomyocytes were treated with the hERG potassium channel blocker E4031 as a control. Following treatment, the beat period and field potential duration (FPD) were measured in each sample using the MEA.

[18] = test system: cardiomyocytes differentiated from induced pluripotent stem cells; assay: long-term mitochondrial health, TMRM, 7 days (Example 19); format: cell-based, human; conditions: 1 μM of doxorubicin
MDA-MB-231 cells [19] = assay: cells; conditions: Homo sapiens, MDA-MB-231, 72 h, read-out: cell viability LC50 of doxorubicin
[20] = test system: cardiomyocytes differentiated from induced pluripotent stem cells; assay: electrophysiological activity with doxorubicin, active electrodes (Example 20); format: cell-based, human
Protocol: Samples were either mock-treated with 0.1% DMSO, treated with 1 μM doxorubicin, or co-treated with 1 μM doxorubicin and various concentrations of vitexin (e.g., 11.6 μM, 37 μM, or 116 μM). Following treatment, the percentage of active electrodes in each sample was measured for 72 hours. Percentage of active electrodes was quantified and graphed in a time course (FIG. 28A). The average number of active electrodes per well was quantified and graphed at 30 hours after the treatment (FIG. 28B, n=6, standard deviation is shown as error bars).

[21] = MYR 40 mg/kg i.p. 30 minutes prior to doxorubicin 20 mg/kg, day 5
[22] = MYR 40 mg/kg i.p., 2-fold higher than doxorubicin
[23] = iPSC-CM, read-out: iPSC-CM protection EC50
[24] = Doxorubicin 20 mg/kg single intraperitoneal injection, day 5 vs baseline

T1 sequence (Q02880 whole entry): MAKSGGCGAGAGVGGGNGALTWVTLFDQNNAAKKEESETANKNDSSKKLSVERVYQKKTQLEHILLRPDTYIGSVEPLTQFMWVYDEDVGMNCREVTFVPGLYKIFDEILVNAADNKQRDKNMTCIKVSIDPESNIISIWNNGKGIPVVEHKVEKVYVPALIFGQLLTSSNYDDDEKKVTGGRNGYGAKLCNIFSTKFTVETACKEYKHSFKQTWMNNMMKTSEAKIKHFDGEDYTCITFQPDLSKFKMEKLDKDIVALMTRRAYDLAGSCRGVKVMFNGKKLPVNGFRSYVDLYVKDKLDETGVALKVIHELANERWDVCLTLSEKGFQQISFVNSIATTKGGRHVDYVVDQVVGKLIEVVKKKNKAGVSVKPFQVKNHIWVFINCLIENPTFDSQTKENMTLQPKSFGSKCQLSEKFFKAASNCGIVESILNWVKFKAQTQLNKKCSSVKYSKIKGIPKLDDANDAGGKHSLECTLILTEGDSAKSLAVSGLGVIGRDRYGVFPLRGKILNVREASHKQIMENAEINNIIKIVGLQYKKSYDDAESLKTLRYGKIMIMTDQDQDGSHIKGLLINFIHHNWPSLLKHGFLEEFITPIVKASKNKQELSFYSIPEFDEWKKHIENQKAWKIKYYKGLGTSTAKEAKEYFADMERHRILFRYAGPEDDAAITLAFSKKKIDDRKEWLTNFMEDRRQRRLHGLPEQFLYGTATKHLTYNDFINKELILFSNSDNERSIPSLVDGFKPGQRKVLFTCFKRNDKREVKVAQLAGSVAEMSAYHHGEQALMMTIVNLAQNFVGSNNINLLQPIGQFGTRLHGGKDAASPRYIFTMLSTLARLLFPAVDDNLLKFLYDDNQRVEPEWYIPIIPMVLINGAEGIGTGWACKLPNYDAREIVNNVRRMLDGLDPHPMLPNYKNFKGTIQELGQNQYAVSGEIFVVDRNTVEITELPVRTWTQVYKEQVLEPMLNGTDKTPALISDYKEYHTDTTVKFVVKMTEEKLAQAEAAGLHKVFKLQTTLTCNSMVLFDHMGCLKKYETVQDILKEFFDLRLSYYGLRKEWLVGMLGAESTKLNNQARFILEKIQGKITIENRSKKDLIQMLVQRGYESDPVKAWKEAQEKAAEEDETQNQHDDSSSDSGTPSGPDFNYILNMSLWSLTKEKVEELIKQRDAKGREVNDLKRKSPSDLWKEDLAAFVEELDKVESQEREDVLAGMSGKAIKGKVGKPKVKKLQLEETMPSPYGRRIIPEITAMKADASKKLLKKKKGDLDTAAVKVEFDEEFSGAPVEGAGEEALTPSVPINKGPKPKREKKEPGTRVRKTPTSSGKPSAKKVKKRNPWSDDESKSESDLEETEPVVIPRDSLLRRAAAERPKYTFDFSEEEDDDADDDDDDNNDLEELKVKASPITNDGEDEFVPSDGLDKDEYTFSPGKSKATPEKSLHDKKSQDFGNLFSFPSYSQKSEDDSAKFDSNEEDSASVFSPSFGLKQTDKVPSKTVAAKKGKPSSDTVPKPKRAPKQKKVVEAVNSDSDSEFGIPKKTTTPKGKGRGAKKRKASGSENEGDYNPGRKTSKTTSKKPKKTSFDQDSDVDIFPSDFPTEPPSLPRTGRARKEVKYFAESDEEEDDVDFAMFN
T2 sequence (P11388 whole entry): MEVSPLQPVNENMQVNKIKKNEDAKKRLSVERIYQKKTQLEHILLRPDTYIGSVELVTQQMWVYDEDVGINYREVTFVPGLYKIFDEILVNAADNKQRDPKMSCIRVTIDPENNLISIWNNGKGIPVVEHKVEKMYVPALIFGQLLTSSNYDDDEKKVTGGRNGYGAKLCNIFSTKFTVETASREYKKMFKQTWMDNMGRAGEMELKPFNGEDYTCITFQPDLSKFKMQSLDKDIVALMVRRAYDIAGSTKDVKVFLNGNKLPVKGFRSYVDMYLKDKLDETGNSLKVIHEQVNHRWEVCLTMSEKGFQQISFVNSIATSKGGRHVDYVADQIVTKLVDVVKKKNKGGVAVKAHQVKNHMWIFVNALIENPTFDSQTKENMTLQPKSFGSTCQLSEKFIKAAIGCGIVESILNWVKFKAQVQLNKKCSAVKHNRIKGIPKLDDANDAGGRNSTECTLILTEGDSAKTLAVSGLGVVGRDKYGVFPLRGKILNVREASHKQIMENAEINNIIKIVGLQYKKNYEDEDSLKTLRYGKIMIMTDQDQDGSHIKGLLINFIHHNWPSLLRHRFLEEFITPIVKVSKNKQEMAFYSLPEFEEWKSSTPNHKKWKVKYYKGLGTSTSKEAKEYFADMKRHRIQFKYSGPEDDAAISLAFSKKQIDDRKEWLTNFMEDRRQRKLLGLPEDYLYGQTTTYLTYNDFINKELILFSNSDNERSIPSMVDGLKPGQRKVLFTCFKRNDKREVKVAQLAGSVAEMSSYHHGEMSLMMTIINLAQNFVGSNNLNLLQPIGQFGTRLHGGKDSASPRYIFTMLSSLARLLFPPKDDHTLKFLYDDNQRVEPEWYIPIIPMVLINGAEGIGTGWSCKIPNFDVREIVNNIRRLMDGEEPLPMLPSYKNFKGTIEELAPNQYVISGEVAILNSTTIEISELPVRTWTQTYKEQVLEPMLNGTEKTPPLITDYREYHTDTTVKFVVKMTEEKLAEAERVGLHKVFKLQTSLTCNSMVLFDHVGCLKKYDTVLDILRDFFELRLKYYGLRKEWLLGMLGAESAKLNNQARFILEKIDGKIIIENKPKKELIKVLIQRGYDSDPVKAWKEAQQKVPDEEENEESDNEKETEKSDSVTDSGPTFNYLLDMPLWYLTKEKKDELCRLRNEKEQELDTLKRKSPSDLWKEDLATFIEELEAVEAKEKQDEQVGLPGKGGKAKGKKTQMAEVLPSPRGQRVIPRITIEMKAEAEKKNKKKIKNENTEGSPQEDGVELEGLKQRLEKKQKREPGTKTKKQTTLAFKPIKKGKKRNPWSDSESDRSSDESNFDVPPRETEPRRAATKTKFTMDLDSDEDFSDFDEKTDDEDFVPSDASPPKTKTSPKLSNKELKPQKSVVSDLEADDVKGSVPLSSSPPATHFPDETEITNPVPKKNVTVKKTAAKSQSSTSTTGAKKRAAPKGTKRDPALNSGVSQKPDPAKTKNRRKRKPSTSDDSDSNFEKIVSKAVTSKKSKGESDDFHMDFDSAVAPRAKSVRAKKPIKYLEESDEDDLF
topoisomerase IIβ, sequence (Q02880 whole entry): as the sequence (Q02880 whole entry) above

## O=c1c(O)c(-c2cc(O)c(O)c(O)c2)oc2cc(O)cc(O)c12 [Compound 1, 3,5,7,3′,4′,5′-hexahydroxyflavone]
Cardiomyocytes [1]
  rescue of bortezomib-induced cardiotoxicity: rescued
[2]; DOX (0.5 μM) plus 100 μM agent
  protection against DOX-induced double strand break (γH2AX-positive cells): significant protection
[2]; Homo sapiens, Cardiomyocyte, read-out: IC50, concentration at which DOX-induced double strand break was reduced to 50%, 0.5 μM of doxorubicin
  IC50: 5.28 µM
[3]
  protection against sunitinib-induced cell death: displayed protection
TOPOIIα expression; myricetin in the presence of DOX
  expression of TOPOIIα: further repressed
[4]
  difference in the number of total cells, as compared to mock-treated control: no significant difference
[4]; co-treated with myricetin and 1.25 μM doxorubicin, 72 hours
  reduction the number of total cells, as compared to mock-treated control: 27.57%
[5]
  TMRM signal (mitochondrial health): greater TMRM signal
[6]
  cardiac dysfunction corrected: more than 80%
[7]
  IC50: 20.5 µM
C57BL/16 mice; [21]
  improvement of EF: 10%
  improvement of FS: 7%
C57BL/16 mice; [22]
  rescue of EF dysfunction caused by doxorubicin: 49%
  rescue of FS dysfunction caused by doxorubicin: 52%
[8]; DOX (0.5 μM) plus MYR (100 μM), as compared to DEX (100 μM)
  correction of DOX-induced contractile dysfunction: significantly corrected
[9]; 79 μM myricetin alone
  beat rate: 39.33 beats per minute
[9]; co-treated with 79 μM myricetin and 1.25 μM doxorubicin
  beat rate: 37.33 beats per minute
[10]; Cardiomyocyte, approximate, read-out: EC50 for cardioprotection
  EC50: 10 to 20 µM
[10]; [23]
  EC50: 14.5 µM
[10]; iPSC-CM
  Emax: 78%
[11]
  EC50: 7.5 µM
[12]
  protection against DOX-induced sarcomere disruption: significant protection
TOPOIIβ mRNA expression; DOX plus myricetin
  TOPOII expression (TOPOIIβ) in the presence of myricetin: restored to a level close to normal
TOPOIIβ mRNA expression
  TOPOIIβ mRNA expression: did not have any effect

## O=c1c(O)c(-c2ccc(O)cc2)oc2cc(O)cc(O)c12 [Compound 7, 3,5,7,4′-tetrahydroxyflavone]
A549 cells
  difference in the percentage of cell death vs doxorubicin without protective agent: no significant difference
TOPOIIβ
  TOPIIβ Inhibition: −
TOPOIIβ; decatenation assay
  TOPOIIβ inhibition, in words: did not exhibit any inhibitory effect
Cardiomyocytes [13]; * = cytotoxicity at 100 μM
  Toxicity: −
Cardiomyocytes [13]; Table 1
  toxic effects at concentrations less than 100 μM: did not show toxic effects
Cardiomyocytes [13]; at 100 μM where stated, Table 1
  cytotoxicity, in words: without some level of cytotoxicity
TOPOIIα
  TOPIIα Inhibition: −
TOPOIIα; decatenation assay
  TOPOIIα inhibition, in words: did not exhibit any inhibitory effect
[14]; various concentrations, at least 5 days
  decrease in the number of active electrodes relative to the mock-treated sample: no observable decrease
[15]
  decrease in mitochondrial toxicity, compared to doxorubicin without protective agent: at least 60%
MDA-MB-231 cells [16]
  difference in the percentage of cell death vs doxorubicin without protective agent: no significant difference
[10]
  maximum rescue rate: < 50%
[10]; [23]
  EC50: 26 µM
[10]; iPSC-CM
  Emax: 46%
[10]; Table 1
  cardioprotection, in words: moderate level of cardioprotection

## C[C@@H](CN1CC(=O)NC(=O)C1)N1CC(=O)NC(=O)C1 [dexrazoxane]
A549 cells
  difference in the percentage of cell death vs doxorubicin without protective agent: no significant difference
Topoisomerase IIβ
  topoisomerase IIβ protein levels: marked disappearance of TOPOIIβ
[14]; 167 μM dexrazoxane, about 2 days post-treatment
  reduction in the number of active electrodes: ~25%
[14]; 167 μM dexrazoxane, about 3 days post-treatment
  reduction in the number of active electrodes: ~50%
[14]; 500 μM dexrazoxane, about 2 days post-treatment
  reduction in the number of active electrodes: ~50%
[14]; 500 μM dexrazoxane, about 3 days post-treatment
  reduction in the number of active electrodes: ~100%
MDA-MB-231 cells [16]
  difference in the percentage of cell death vs doxorubicin without protective agent: no significant difference
[17]
  difference in beat period or field potential duration vs control samples: no appreciable difference

## COc1cccc2c1C(=O)c1c(O)c3c(c(O)c1C2=O)C[C@@](O)(C(=O)CO)C[C@@H]3O[C@H]1C[C@H](N)[C@H](O)[C@H](C)O1 [doxorubicin, reference compound]
TOPOIIα expression; DOX alone, over time
  expression of TOPOIIα: slowly repressed
[4]; human, 72 h, 1.25 μM
  reduction in the number of total cells, as compared to mock-treated control: 62.6%
[18]
  mitochondrial toxicity (decrease in TMRM-positive cells) vs mock-treated: increase in mitochondrial toxicity
MDA-MB-231 cells [19]
  CC50: 0.53 µM
C57BL/16 mice; [24]
  decrease of ejection fraction (EF): 19%
  decrease of fractional shortening (FS): 15%
[8]; DOX (0.5 μM)
  dysfunction in cardiomyocyte contraction: reduction in beating, duration, and peak height
[9]; 1.25 μM doxorubicin, in the absence of myricetin
  contraction: completely inhibited contraction
TOPOIIβ mRNA expression
  TOPOIIβ mRNA expression: significantly repressed
[20]; 1 μM doxorubicin in the absence of vitexin, 30 hours
  average number of active electrodes: about 2 active electrodes
[20]; 1 μM doxorubicin, in the absence of vitexin, 24 hours after drug treatment
  decrease in the number of active electrodes: ~50%
[20]; 1 μM doxorubicin, in the absence of vitexin, 30 hours after drug treatment
  decrease in the number of active electrodes, relative to time zero: ~95%
